Like-named read-outs stand apart in the source and are kept apart here.
How the values were obtained:
NK1 receptors [1] = target: T1, NK1 receptors (Cavia porcellus, UniProt P30547); assay: NK-1-receptor-antagonistic effectiveness in vivo in anaesthetised guinea pigs (NKA test stimulus, early hypotension); set-up: from tissue; host or cells: whole anaesthetised guinea pig (in vivo); species or system Pirbright-White guinea pigs; conditions: for ED50: guinea pig; for oral activity as NK1 receptor antagonist: result in words, oral administration
Description: The NK-1- and NK-2-antagonistic activities of the test substances were investigated in anaesthetised guinea pigs in each case after intravenous (= i.v.) and oral (= p.o.) administration in vivo. With the present test model it is possible to detect both NK-2-antagonistic effects in three different organ systems (respiratory tracts, colon and circulation) and NK-1-antagonistic effects (rapid drop in blood pressure) in an animal simultaneously.
Pirbright-White guinea pigs of a body weight of 500-700 g were anaesthetised with ketamine/xylazine (67/13 mg/kg subcutaneously, initial dose, further doses administered as required). The animals were provided with an intravenous catheter in order to administer the substance and an intra-arterial catheter to measure the blood pressure. The animals were artificially ventilated via a tracheal cannula and the respiratory pressure was recorded by means of a pressure transducer. A balloon was introduced into the distal colon of the animals for manometric recording of colon motility by means of a pressure transducer. Blood pressure, heart rate, respiratory pressure and colonic pressure were measured continuously for each animal and plotted on a recorder and by means of a digital data-processing system. […] The second phase of delayed hypotension (= phase of maximum hypotension after 2-5 min.) on the other hand is mediated via NK-2 receptors, since they can be blocked by specific NK-2 receptor antagonists. […] Table 6: NK-1- and NK-2-receptor-antagonistic effective-ness of the test substances of Formula I on guinea pigs in vivo after intravenous administration
These ED50 values obtained from cumulative dose effect curves are plotted in table 6.
The antagonistic effects of the test substances were then determined as "area under the curve" ("AUC") over the investigation period after administration of the test substances (1 - 180 min after administration) and the ED50 values after oral administration obtained therefrom were plotted in table 7. Table 7: NK-1- and NK-2-receptor-antagonistic effective-ness of the test substances of Formula I on guinea pigs in vivo after oral administration

human NK2 receptors = target: T2, human NK2 receptors (Homo sapiens, UniProt P21452); assay: Binding of the test substances to NK2 receptors in vitro ([3H]-SR 48968 displacement, CHO cell membranes); conditions: [3H]-SR 48968 as ligand; membranes of CHO cells expressing the human NK2 receptor; 90 min incubation; Ki calculated from IC50; read-out: pKi (NK2) (converted)
T2 construct: expressed in transfected cells; host or cells: CHO cells (membrane preparation)
T2 sequence (P21452 1-398): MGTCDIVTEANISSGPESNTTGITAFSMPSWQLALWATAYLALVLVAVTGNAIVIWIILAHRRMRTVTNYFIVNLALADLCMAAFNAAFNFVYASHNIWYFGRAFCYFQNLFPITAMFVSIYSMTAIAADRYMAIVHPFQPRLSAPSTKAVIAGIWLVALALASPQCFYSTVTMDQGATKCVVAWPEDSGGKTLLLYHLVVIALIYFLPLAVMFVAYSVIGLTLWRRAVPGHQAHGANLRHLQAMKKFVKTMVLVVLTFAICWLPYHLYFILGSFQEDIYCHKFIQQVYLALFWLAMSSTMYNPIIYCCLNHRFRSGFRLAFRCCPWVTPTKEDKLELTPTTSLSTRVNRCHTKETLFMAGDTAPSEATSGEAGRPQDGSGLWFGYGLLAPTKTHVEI
Procedure: The affinity of the test substances to human NK2 receptors was measured in vitro. The ability of the test substances to displace the selective NK2 receptor antagonist SR 48968 (= saredutant) used as reference ligand from its corresponding bond was determined.
The receptor binding studies were carried out with radioactively marked [^3H]-SR 48968 (from Amersham) as ligand. For the binding test, different samples of a membrane preparation of CHO cells (= egg cells of the Chinese hamster, Chinese hamster oocytes), which express the human NK2 receptor (for preparation, see N.P. Gerard et al., Journal of Biological Chemistry 265/33 (1990) 20455-20462), were incubated for 90 minutes (= min.) with a solution of the marked ligand, with the incubation mixtures containing no test substance or additions of different concentrations of test substance. Then in each case the membrane-bound ligands in the samples were separated from free ligands by filtration. The fraction remaining in the filter was washed several times with buffer solution, before its radioactivity was measured using a liquid scintillation counter. That concentration which effects half-maximum displacement of the bound reference ligand was determined as IC50 of the respective test substance. The inhibition constant (Ki value) of the test substance was calculated from the respective IC50 value, and was stated as the negative logarithmised value thereof (pKi).
If several measurements were performed, the average thereof was listed each time. The pKi value is a measurement of the affinity of the test substances to human NK2 receptors.

NK1 receptors [2] = target: T1, NK1 receptors; assay: Functional NK1 antagonism on isolated guinea pig aorta ring preparations (Substance P induced relaxation); set-up: from tissue; host or cells: guinea pig aorta ring preparations; species or system Pirbright-White guinea pigs
Procedure: In The Netherlands, the action antagonistic to NK1 receptors of the test substances was measured in vitro on isolated ring preparations, kept in an oxygenated nutrient solution, of the aortas of Pirbright-White guinea pigs.
In order to measure the contraction of the vessel muscles, the preparations were fixed to a hook, joined by a thread to a force measuring apparatus and the contractions were recorded in each case on a plotter. The aorta preparations were tonicised with phenylephrine. […] The relaxations before and after the administration of the test substance were quantified in percent. The effective concentration of the half maximum inhibition of the relaxation of the tone (= EC50) was calculated. The negative common logarithm of the EC50 value (= pEC50) was given as characteristic variable. The pEC50 value is a measurement of the functional effectiveness of the test substances on NK1 receptors.

[3] = iv, read-out: ED50 iv after 1 min (cumulative) NK1 (early hypotension)
[4] = oral, from AUC of antagonistic effect 1 - 180 min after administration, read-out: ED50 AUC1-180 min oral NK1 (early hypotension)

T1 sequence (P30547 whole entry): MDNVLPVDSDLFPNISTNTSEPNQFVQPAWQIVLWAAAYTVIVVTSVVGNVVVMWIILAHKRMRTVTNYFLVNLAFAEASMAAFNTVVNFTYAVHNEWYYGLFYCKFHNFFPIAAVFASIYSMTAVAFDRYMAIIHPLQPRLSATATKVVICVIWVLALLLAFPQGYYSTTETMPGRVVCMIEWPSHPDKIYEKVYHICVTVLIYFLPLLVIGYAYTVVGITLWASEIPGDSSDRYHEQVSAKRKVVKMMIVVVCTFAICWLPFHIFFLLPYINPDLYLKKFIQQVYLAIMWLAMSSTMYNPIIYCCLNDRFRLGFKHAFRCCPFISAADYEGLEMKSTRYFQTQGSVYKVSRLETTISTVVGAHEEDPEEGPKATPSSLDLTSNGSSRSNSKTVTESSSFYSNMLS

CN(C[C@@H](CCN1CCN([C@@H](c2ccco2)[C@H](O)CO)CC1)c1ccc(Cl)c(Cl)c1)C(=O)c1cc(C#N)cc2ccccc12 [Compound 1, 3-cyano-N-[(2S)-2-(3,4-dichlorophenyl)-4-{4-[(1R,2S)-1-(2-furyl)-2,3-dihydroxypropyl]piperazin-1-yl}butyl]-N-methyl-1-naphthamide]
ED50 (NK1 receptors [1]; [3]): 0.077 µmol/kg
ED50 (NK1 receptors [1]; [4]): 22.9 µmol/kg
oral activity as NK1 receptor antagonist (NK1 receptors [1]): active orally
Ki (human NK2 receptors): 7.94 nM
EC50 (NK1 receptors [2]): 0.398 nM

CN(C[C@@H](CCN1CCN([C@@H](c2ccco2)[C@H](O)[C@@H](O)[C@H](O)CO)CC1)c1ccc(Cl)c(Cl)c1)C(=O)c1cc(C#N)cc2ccccc12 [Compound 2, 3-cyano-N-[(2S)-2-(3,4-dichlorophenyl)-4-{4-[(1R,2S,3R,4R)-1-(2-furyl)-2,3,4,5-tetrahydroxypentyl]piperazin-1-yl}butyl]-N-methyl-1-naphthamide]
ED50 (NK1 receptors [1]; [3]): < 0.01 µmol/kg
ED50 (NK1 receptors [1]; [4]): 15.2 µmol/kg
oral activity as NK1 receptor antagonist (NK1 receptors [1]): active orally
Ki (human NK2 receptors): 79.4 nM
EC50 (NK1 receptors [2]): 0.316 nM

CN(C[C@@H](CCN1CCN(C(CO)(CO)c2ccco2)CC1)c1ccc(Cl)c(Cl)c1)C(=O)c1cc(C#N)cc2ccccc12 [Compound 6, 3-cyano-N-[(2S)-2-(3,4-dichlorophenyl)-4-{4-[1-(2-furyl)-2-hydroxy-1-(hydroxymethyl)ethyl]piperazin-1-yl}butyl]-N-methyl-1-naphthamide]
ED50 (NK1 receptors [1]; [3]): 0.071 µmol/kg
Ki (human NK2 receptors): 39.8 nM
EC50 (NK1 receptors [2]): 0.398 nM

CN(C[C@@H](CCN1CCN([C@@H](c2ccco2)[C@H]2COC(=O)O2)CC1)c1ccc(Cl)c(Cl)c1)C(=O)c1cc(C#N)cc2ccccc12 [Compound 11, 3-cya no-N-[(2S)-2-(3,4-dichlorophenyl)-4-(4-{(R)-2-furyl[(4S)-2-oxo-1,3-dioxolan-4-yl]methyl}piperazin-1-yl)butyl]-N-methyl-1-naphthamide]
ED50 (NK1 receptors [1]; [3]): 0.093 µmol/kg
Ki (human NK2 receptors): 25.1 nM
EC50 (NK1 receptors [2]): 1.26 nM

From patent publication EP1954678B1, “NOVEL NK1 AND NK2 ANTAGONISTS” (Abbott Products GmbH, priority 2005, dated 2007)
